Consider 2 molecules from publication PMC9822400, “The Lipophilic Purine Nucleoside—Tdp1 Inhibitor—Enhances DNA Damage Induced by Topotecan In Vitro and Potentiates the Antitumor Effect of Topotecan In Vivo” (Molecules, 2022).

The data set concerns HeLa cells. Nature of the data set: Alkaline Comet assay, accumulation of DNA damage. It counts as cell-based. The conditions noted are these: for Amount of DNA damage (% DNA in tail) in combination with Tpc compared to only Tpc: 10 μM Tpc + compound; for DNA in tail: 1 h; for Effect of the compound alone on the integrity of DNA: compound alone in concentrations up to 1 mM, compared to untreated or 1% DMSO. The text has this: We studied the effect of Tdp1 inhibitors 5f and 6d on the accumulation of DNA damage by single-cell gel electrophoresis (Comet assay). […] This method has proven to be a simple, fast, and a quite sensitive way to detect DNA damage at the level of a single cell, allowing one to analyze almost any eukaryotic cell culture. Several analysis options allow one to visualize various types of DNA damage: single- and double-stranded breaks and alkaline-labile sites. This allows this method to be widely used in fundamental studies of DNA damage and repair and in testing the genotoxicity of new chemical and pharmaceutical drugs in vitro and in vivo [51, 52]. To study potential drugs, the alkaline version of the method (pH > 13) proposed by Singh and co-authors is widely used. This method allows the detection of all types of DNA damage with high sensitivity. In cells with a large amount of DNA damage, the structural organization and integrity of DNA are disrupted, which leads to its relaxation and/or fragmentation. As a result, cellular DNA in an electric field gives the observed objects the appearance of a “comet”.
Before studying the effect of Tdp1 inhibitors on the accumulation of DNA damage, it was necessary to find out how long the generation of DNA damage by Tpc and their repair take place in HeLa cells. To do this, cell culture was treated with Tpc at 1, 10, and 100 μM concentrations for 30 min, 1, 2, and 3 h and the level of damage to individual cells was monitored by Comet assay. It was shown that Tpc caused the greatest amount of damage after 30 minutes’ treatment. After this time, the repair systems began to correct these lesions and as a result, after 3 h most of them have been eliminated (Figure S9). […] The level of DNA damage at this point was enough to be detected, the data were reproducible, and can be evaluated by the Comet assay. The effect could be enhanced by the tested compounds without leading to cell death. It was important for us to see this enhancement in the presence of our compounds.
HeLa cell culture was grown in a 24-well plate to a concentration of 0.05 million/mL, then treated with the tested compounds and incubated for 1 h. To obtain a cell suspension, the cells were treated with trypsin (30 µL in each well for 5 min at 37 °C), and then 200 µL of PBS + 10% FBS were added to each well.
The resulting cell suspension (50 µL) was mixed with 250 µL of a 1% solution of molten low melting agarose (CertifiedTM LMAgarose; BIO-RAD), 250 µL of this mixture was transferred to the slides pre-coated with a 1% normal melting agarose (Agarose; Helicon), and left for several minutes at 4 °C to solidify. The resulting slides were incubated in a lysing solution (2.5 M NaCl, 100 mM EDTA, 10 mM Tris base, 1% Triton, 5% DMSO, pH 10.0) for an hour at 4 °C. Then the slides were immersed in an electrophoretic buffer (300 mM NaOH, 1 mM EDTA, pH > 13) for 45 min at 4 °C. Electrophoresis was performed at 20 V, 450 mA for 10 min while cooling on ice. After that, the slides were immersed 2 times for 5 min in 0.4 M Tris-HCl pH 7.5 solution for neutralization, washed twice with cold water, and stained with SYBR Green I (excitation maximum at 497 nm, emission maximum at 520 nm; Thermo Fisher Scientific KK).
The images were obtained using a CELENA © S digital microscope (Logos Biosystems, Inc., Annandale, VA, USA) and analyzed with Comet analysis software (Trevigen, Inc., Gaithersburg, MD, USA. In all experiments, 2 slides were evaluated for each sample by counting at least 200 cells on the glass. As a parameter for measuring the level of DNA damage, the median value of the percentage of DNA in the tail was chosen (% Tail DNA = 100 × the intensity of DNA fluorescence in the tail of the comet/the intensity of fluorescence of the total DNA of the comet).

Where [1] appears, read: compound 10 μM + Topotecan 10 μM.
Setting [2] is: compound 50 μM + Topotecan 10 μM.
The mark [3] stands for this setting: compound 200 μM + Topotecan 10 μM.

“Also recorded” adds a separate entry of the source.

`O=C(OC[C@H]1O[C@@H](n2cnc3c(Cl)nc(Cl)nc32)[C@H](OC(=O)c2ccccc2)[C@@H]1OC(=O)c1ccccc1)c1ccccc1` [compound 6d, 2,6-dichloro-9-(2,3,5-tri-O-benzoyl-β-D-ribofuranosyl)purine]: the “Amount of DNA damage (% DNA in tail) in combination with Tpc compared to only Tpc” value is “increased the amount of DNA damage” and the “Effect of the compound alone on the integrity of DNA” value is given as “did not affect the integrity of DNA; also recorded: does not cause DNA damage by itself”. Moreover, the “Reduction of the topotecan dose required to produce a serious level of DNA damage” value (Tpc 1 μM + 6d 5 μM similar to only Tpc 10 μM) turned out to be 10 times. Moreover, the DNA in tail under setting [1] came out at 50±2%. Moreover, the DNA in tail under setting [2] is 65±6%. Also, under setting [3], the DNA in tail is recorded as 71±4%.

Regarding `O[C@@H]1[C@H](O)[C@@H](COC(c2ccccc2)(c2ccccc2)c2ccccc2)O[C@H]1n1cnc2c(NC(c3ccccc3)(c3ccccc3)c3ccccc3)ncnc21` [compound 5f], the “Amount of DNA damage (% DNA in tail) in combination with Tpc compared to only Tpc” value is reported as “did not significantly differ” and the “Effect of the compound alone on the integrity of DNA” value is “did not affect the integrity of DNA”. Also, the DNA in tail under setting [1] is 37±3%. Moreover, the DNA in tail under setting [2] is given as 40±3%. The DNA in tail under setting [3] is recorded as 42±4%.
